Experimental data from ChEMBL document CHEMBL1201862, “PubChem BioAssay data set” (2004).
Activity calls are given as the source filed them.

What was measured:
Leucine aminopeptidase = target: T1, Leucine aminopeptidase (Plasmodium falciparum 3D7, UniProt Q8IL11); experiment: P. falciparum M17LAP inhibitors, primary screen, biochemical, fluorogenic H-Leu-NHMec substrate, 1536-well (AID 1619); format: functional
T1 sequence (Q8IL11 whole entry): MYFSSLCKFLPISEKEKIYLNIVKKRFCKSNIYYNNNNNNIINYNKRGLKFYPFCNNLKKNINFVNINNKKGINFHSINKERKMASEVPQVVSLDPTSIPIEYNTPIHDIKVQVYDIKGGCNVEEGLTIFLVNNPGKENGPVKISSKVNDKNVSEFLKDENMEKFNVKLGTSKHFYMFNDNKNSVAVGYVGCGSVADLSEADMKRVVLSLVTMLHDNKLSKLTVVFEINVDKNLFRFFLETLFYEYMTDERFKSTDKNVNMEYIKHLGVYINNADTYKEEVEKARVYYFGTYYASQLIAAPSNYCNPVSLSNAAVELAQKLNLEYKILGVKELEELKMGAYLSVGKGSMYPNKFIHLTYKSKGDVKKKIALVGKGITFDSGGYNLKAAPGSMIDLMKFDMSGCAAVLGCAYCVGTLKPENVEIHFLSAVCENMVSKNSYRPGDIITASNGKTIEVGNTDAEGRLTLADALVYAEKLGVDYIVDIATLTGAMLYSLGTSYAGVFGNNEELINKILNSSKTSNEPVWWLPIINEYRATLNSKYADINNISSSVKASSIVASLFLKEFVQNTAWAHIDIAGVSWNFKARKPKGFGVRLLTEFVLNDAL

HEK293 = experiment: EBV LMP1 TES2 canonical NF-kB signalling blockers – cell-based, HEK293, luciferase, cherry-pick, dose response (AID 588343); format: functional; conditions: Homo sapiens
Procathepsin L = Procathepsin L (Homo sapiens, UniProt P07711); experiment: CTSL1 protease inhibition – biochemical, QFRET, 1536-well, counter-screen for M1/M17 aminopeptidase inhibitor project, dose response (AID 2214)
Chain of Procathepsin L (P07711 whole entry): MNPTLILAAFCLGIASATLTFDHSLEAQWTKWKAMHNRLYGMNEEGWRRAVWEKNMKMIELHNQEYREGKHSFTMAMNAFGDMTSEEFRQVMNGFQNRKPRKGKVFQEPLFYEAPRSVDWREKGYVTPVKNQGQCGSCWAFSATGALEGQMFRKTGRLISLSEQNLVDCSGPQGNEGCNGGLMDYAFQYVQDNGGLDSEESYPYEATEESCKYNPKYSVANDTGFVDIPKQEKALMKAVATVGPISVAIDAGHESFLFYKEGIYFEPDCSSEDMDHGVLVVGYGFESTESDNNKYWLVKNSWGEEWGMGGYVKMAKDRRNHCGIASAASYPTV

Aspartyl aminopeptidase = Aspartyl aminopeptidase (Plasmodium falciparum 3D7, UniProt Q8I2J3); experiment: Counterscreen for inhibitors of M1 and M17 aminopeptidases: QFRET-based biochemical high throughput dose response assay for inhibitors of the Plasmodium falciparum M18 Aspartyl Aminopeptidase (PFM18AAP). [Related PubChem assays: 1619 (Screening assay (M17LAP inhibitors).), 1445 (Screening assay (M1AAP inhibitors).)]
Chain of Aspartyl aminopeptidase (Q8I2J3 whole entry): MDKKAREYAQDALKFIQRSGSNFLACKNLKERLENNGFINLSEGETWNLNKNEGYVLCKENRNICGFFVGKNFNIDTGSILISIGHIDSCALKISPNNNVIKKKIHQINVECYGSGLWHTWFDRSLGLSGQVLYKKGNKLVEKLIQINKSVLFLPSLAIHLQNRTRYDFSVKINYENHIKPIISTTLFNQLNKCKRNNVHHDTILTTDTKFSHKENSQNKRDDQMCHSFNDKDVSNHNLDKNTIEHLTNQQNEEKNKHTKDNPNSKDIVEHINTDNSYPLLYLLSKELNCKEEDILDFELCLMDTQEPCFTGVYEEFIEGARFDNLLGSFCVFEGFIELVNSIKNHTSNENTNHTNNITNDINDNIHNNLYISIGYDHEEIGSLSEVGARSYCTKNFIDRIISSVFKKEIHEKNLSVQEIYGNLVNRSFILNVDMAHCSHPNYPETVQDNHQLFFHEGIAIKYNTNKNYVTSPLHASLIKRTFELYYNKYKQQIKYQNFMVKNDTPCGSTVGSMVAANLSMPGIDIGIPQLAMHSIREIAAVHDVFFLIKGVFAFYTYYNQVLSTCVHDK

[1] = target: Dual specificity protein kinase CLK1 (Homo sapiens, UniProt P49759); experiment: inhibition of human CLK1 activity – biochemical, cherry-picked samples, selectivity assay for Dyrk1A inhibitor project, dose response (AID 588811)
Chain of Dual specificity protein kinase CLK1 (P49759 whole entry): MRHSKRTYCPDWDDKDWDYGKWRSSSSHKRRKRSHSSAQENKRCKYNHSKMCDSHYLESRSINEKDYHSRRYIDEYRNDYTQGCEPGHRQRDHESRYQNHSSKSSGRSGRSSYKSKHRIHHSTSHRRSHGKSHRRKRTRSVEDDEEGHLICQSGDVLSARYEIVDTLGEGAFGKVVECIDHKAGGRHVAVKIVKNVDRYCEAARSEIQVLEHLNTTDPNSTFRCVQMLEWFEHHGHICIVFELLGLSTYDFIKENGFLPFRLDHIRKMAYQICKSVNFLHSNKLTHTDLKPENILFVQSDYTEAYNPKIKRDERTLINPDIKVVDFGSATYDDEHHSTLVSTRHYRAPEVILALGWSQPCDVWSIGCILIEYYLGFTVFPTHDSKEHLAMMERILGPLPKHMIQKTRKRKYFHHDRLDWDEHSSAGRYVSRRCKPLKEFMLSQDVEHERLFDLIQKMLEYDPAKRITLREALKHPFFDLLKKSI

[2] = target: Beta-adrenergic receptor kinase 1 (Homo sapiens, UniProt P25098); experiment: aptamer displacement from bead-bound GRK2 – biochemical, cherry pick 1, bead flow cytometry, dose response (AID 504500)
Chain of Beta-adrenergic receptor kinase 1 (P25098 whole entry, the tested form may be a part): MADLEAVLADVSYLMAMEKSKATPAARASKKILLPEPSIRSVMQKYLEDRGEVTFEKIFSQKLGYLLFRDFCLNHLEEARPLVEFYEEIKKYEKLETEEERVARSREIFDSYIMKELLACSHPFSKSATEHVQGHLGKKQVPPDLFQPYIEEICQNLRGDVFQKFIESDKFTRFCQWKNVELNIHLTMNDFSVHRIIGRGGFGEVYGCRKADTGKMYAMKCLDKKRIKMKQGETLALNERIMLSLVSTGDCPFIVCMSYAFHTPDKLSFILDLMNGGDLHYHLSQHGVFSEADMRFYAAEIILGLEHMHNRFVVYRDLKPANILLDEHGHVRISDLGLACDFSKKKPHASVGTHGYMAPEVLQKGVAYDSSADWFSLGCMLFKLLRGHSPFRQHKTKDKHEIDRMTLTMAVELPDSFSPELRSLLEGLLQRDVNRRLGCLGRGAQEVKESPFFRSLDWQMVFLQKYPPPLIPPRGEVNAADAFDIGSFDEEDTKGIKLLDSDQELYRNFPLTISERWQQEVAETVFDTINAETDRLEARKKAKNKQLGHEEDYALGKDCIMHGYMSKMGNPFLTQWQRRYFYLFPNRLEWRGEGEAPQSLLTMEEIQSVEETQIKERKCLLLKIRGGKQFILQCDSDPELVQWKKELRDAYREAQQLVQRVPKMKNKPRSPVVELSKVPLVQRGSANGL

[3] = target: T2, Carboxy-terminal domain RNA polymerase II polypeptide A small phosphatase 1 (Homo sapiens, UniProt Q9GZU7); experiment: CTDSP1 inhibitors, concentration-response, biochemical, absorbance readout, ultra-high-throughput screen actives (AID 540297); format: functional
T2 sequence (Q9GZU7 whole entry): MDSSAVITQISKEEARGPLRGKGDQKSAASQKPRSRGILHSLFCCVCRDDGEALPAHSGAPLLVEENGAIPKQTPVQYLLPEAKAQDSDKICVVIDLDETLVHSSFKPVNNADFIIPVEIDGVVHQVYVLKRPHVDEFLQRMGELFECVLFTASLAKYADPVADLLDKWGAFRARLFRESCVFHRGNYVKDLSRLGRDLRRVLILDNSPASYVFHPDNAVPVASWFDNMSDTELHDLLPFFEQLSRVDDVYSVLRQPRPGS

Caspase-7 = target: T3, Caspase-7 (Homo sapiens, UniProt P55210); experiment: caspase-7 enzyme inhibition, selectivity check – biochemical, DEVD-R110 fluorescence, cherry-pick, selectivity assay for caspase-6 inhibitor project, dose response (AID 743295); format: functional
T3 sequence (P55210 whole entry): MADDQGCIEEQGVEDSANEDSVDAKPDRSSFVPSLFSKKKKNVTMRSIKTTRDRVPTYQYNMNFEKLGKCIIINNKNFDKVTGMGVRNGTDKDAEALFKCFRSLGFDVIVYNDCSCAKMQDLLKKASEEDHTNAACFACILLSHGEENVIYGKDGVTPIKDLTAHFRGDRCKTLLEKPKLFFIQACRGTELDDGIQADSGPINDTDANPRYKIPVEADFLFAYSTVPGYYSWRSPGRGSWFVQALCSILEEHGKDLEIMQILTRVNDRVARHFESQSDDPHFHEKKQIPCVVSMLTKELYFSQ

Caspase-6 = target: T4, Caspase-6 (Homo sapiens, UniProt P55212); experiment: inhibition of CASP6 peptide cleavage – biochemical, VEID-R110 fluorescence, cherry-pick, dose response (AID 720632)
T4 sequence (P55212 whole entry): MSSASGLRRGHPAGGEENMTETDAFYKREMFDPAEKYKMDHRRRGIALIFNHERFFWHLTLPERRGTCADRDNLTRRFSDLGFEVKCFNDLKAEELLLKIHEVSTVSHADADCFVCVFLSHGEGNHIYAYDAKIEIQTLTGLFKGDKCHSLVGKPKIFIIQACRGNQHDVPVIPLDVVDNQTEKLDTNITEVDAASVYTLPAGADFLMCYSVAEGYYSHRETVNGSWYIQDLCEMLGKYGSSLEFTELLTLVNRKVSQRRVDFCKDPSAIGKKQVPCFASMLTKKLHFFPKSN

Caspase-8 = Caspase-8 (Homo sapiens, UniProt Q14790); experiment: inhibitors of purified CASP8 protease – biochemical, Z-IETD-R110 fluorescence, cherry-picked samples, selectivity assay for caspase-6 inhibitor project, dose response (AID 743294)
Chain of Caspase-8 (Q14790 217-374 limits assumed): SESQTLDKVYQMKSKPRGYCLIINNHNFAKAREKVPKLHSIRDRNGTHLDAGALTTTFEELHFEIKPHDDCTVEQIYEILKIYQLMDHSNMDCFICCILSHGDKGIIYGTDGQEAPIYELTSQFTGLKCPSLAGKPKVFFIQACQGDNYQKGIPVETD
Chain of Caspase-8 (Q14790 385-479 limits assumed): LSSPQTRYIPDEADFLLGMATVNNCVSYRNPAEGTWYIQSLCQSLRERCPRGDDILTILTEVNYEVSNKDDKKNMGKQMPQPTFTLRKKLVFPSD

Genome polyprotein = Genome polyprotein (dengue virus type 2, UniProt P29990); experiment: flavivirus cap methylation enzyme inhibition – biochemical, confirmation dose response, primary screen (AID 588689); format: functional
[4] = loss of viability in HepG2 cells – cell-based, CellTiter-Glo, cherry-picked, cytotoxicity control for Shn3 inhibitor project, dose response (AID 624134); format: functional
Protein RecA = target: T5, Protein RecA (Mycobacterium tuberculosis, UniProt P9WHJ3); experiment: Fluorescence Cell-Free Homogeneous Dose Retest to Identify Inhibitors of RecA-Intein Splicing Activity. [Related pubchem assays (depositor defined):AID2097, AID2223, AID489010, AID492950]; format: functional
T5 sequence (P9WHJ3 whole entry): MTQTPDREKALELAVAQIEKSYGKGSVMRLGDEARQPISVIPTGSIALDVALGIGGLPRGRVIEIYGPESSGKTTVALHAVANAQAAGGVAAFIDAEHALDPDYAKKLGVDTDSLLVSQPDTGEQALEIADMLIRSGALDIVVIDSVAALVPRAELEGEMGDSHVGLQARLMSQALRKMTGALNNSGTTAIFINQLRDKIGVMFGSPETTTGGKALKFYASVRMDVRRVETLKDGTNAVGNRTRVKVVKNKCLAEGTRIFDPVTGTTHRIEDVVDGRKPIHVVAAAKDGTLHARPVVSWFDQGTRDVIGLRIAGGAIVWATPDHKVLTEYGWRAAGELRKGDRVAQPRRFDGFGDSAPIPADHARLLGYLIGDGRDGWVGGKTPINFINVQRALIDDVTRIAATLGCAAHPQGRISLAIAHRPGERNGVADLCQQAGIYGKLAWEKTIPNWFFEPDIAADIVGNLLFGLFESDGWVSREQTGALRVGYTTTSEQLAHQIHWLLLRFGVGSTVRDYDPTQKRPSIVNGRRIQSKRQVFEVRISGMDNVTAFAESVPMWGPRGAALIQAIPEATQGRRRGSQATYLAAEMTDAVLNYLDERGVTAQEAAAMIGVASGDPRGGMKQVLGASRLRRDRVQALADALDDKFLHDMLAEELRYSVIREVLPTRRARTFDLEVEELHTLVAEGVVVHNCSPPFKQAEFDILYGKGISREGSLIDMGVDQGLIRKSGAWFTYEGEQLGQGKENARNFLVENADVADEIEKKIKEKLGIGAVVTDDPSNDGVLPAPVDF

[5] = target: T6, Replicative DNA helicase DnaB (Mycobacterium tuberculosis, UniProt P9WMR3); experiment: DnaB intein splicing inhibitors, dose response, biochemical, cell-free fluorescence (AID 449749); format: functional
T6 sequence (P9WMR3 whole entry): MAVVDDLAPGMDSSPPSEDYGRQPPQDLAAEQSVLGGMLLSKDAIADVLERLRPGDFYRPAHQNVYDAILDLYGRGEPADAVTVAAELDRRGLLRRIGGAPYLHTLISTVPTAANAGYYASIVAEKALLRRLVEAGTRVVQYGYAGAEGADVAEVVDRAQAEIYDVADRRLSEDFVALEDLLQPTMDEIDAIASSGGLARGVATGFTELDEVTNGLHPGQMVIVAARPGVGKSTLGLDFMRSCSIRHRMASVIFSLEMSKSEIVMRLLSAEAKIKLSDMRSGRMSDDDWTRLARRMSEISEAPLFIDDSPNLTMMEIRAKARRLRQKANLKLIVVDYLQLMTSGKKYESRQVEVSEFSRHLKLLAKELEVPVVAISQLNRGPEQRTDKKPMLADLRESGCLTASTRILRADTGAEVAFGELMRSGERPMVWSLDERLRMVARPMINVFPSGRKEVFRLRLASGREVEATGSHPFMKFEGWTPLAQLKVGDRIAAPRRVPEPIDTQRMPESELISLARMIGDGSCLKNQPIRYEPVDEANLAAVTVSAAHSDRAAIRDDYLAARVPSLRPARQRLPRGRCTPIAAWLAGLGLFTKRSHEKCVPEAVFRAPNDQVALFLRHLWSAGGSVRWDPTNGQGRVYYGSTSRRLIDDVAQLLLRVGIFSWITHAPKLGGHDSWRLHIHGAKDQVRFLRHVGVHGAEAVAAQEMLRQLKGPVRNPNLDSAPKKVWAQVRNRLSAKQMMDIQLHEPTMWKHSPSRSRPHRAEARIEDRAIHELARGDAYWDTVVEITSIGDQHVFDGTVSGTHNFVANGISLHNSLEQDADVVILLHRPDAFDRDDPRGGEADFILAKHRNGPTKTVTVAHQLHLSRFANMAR

[6] = target: Potassium voltage-gated channel subfamily KQT member 2 (Rattus norvegicus, UniProt O88943, W236L); experiment: potentiation of rat KCNQ2 current – cell-based, automated electrophysiology, mechanism study for KCNQ2 potentiator project, dose response (AID 2603); format: functional
Chain of Potassium voltage-gated channel subfamily KQT member 2 (O88943 whole entry W236L): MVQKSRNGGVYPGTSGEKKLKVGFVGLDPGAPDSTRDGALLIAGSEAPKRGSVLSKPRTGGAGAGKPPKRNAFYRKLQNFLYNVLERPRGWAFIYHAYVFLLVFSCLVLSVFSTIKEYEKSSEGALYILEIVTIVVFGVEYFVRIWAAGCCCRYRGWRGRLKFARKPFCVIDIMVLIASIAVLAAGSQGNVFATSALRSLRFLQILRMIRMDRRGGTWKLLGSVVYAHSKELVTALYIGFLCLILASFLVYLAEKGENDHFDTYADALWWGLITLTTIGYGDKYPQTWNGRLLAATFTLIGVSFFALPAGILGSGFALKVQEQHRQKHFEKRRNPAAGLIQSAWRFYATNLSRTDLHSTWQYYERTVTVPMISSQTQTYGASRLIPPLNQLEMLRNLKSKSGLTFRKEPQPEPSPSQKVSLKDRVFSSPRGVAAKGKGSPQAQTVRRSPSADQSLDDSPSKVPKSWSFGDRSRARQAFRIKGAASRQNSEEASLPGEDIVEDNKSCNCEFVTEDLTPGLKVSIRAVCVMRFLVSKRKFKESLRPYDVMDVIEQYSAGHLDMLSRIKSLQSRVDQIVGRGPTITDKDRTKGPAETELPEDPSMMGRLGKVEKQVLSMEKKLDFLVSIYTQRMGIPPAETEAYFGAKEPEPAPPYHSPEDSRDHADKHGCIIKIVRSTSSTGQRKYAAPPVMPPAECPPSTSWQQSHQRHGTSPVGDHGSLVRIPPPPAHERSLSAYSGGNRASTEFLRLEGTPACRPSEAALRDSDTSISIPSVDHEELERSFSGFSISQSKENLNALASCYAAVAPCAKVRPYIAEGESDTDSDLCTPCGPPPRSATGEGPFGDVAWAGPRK

Vero = experiment: viability of Vero cells under compound – cytotoxicity control for flavivirus capping enzyme inhibitors (AID 588742); format: functional; conditions: Chlorocebus sabaeus
[7] = non-specific 3'UTR reporter inhibition in Clone20-Shn3RL – cell-based, Renilla luciferase, cherry-picked, counter-screen for Shn3 inhibitor project, dose response (AID 624133); format: functional
[8] = reduction of Shn3 3'UTR-driven luciferase in osteoblasts – cell-based, Clone20 osteoblasts, firefly luciferase, cherry-picked, dose response (AID 624132); format: functional;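 note: firefly luciferase luminescence from reporter carrying the Shn3 3'UTR in osteoblasts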
[9] = target: T7, Hepatocyte nuclear factor 4-alpha (Homo sapiens, UniProt P41235); format: functional, cell-based;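 note: biochemical luminescence-based dose-response counterscreen measuring inhibition of HNF4 dimerization, run alongside a screen for blockers of ABHD5–perilipin-5 interaction; split luciferase complementation of HNF4 fusion proteins in cell lysate measuring dimerization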
T7 sequence (P41235 whole entry): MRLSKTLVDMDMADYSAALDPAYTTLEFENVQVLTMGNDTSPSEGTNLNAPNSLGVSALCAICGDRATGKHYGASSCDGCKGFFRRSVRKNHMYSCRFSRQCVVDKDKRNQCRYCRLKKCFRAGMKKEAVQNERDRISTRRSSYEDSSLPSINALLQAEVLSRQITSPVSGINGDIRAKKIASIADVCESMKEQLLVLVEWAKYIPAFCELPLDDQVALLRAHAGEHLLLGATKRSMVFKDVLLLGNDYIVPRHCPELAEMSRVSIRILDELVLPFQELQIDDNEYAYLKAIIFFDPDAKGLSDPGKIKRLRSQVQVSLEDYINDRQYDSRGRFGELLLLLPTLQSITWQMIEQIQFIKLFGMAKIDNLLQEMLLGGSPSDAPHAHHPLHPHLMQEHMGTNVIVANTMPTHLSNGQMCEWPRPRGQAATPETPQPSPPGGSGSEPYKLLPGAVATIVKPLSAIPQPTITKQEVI

INS1 = experiment: INS-1E mitochondrial potential loss inhibitors – cell-based, JC-1 fluorescence, dry powder, set 2, dose response (AID 488867); format: functional; conditions: Rattus norvegicus
Phospholipase D2 = Phospholipase D2 (Homo sapiens, UniProt O14939); experiment: cellular phospholipase D2 inhibition IC50 – cell-based, dose response (AID 602147); format: functional;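 note: cellular assay in HEK293 cells overexpressing GFP-tagged PLD2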
Phospholipase D1 = Phospholipase D1 (Homo sapiens, UniProt Q13393); experiment: cellular phospholipase D1 inhibition IC50 – cell-based, dose response (AID 602151); format: functional;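 note: cellular PLD1 assay in Calu-1 cells stimulated with PMA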
Chain of Phospholipase D1 (Q13393 whole entry): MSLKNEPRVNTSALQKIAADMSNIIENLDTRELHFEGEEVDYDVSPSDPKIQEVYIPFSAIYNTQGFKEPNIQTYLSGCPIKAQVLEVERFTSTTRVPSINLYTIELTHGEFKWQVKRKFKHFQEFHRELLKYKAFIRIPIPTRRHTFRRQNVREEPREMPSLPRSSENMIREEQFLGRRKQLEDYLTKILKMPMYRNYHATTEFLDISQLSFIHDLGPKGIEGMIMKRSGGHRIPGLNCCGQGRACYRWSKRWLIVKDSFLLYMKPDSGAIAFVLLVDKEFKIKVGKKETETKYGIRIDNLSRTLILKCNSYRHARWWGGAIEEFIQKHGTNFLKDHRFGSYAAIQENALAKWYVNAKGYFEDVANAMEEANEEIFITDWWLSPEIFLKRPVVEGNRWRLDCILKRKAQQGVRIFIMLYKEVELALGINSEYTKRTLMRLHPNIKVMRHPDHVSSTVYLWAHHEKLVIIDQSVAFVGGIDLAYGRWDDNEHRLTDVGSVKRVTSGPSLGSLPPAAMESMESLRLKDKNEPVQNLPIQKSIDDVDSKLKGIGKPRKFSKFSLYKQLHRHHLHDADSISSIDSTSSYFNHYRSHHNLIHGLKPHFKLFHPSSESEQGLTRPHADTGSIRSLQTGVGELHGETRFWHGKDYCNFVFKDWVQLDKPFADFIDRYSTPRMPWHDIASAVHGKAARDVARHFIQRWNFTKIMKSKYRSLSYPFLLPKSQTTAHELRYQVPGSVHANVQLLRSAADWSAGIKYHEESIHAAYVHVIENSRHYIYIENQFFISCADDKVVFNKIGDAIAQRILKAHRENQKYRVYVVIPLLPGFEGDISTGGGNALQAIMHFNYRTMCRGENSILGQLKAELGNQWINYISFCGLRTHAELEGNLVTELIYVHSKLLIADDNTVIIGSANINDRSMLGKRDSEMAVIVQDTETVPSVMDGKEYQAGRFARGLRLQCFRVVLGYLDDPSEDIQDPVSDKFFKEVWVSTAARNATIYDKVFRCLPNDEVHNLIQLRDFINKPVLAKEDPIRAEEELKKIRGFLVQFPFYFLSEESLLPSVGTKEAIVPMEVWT

Cc1cc(C(=O)COC(=O)c2cccnc2O)c(C)n1-c1ccccc1
IC50 (Leucine aminopeptidase): 2.67 µM (active) | AC50 (HEK293): 9.69 µM (active) | IC50 (Procathepsin L): > 59.6 µM (not active) | IC50 (Aspartyl aminopeptidase): > 73.5 µM (not active)

CN(Cc1nccs1)c1ncnc2ccc(-c3ccc4c(c3)OCO4)cc12
AC50 [1]: < 0.00195 µM (active)

O=C(O)C1CCCCC1C(=O)Nc1cccc(Br)c1 (configuration not stated)
EC50 [2]: 3.85 µM (active) | IC50 [3]: 3.06 µM (active) | AC50 (Caspase-7): > 70 µM (inactive) | AC50 (Caspase-6): 0.669 µM (active) | AC50 (Caspase-8): 25.8 µM (active)

CCc1nnc(NC(=O)c2nc(S(=O)(=O)Cc3ccccc3)ncc2Cl)s1
IC50 (Genome polyprotein): > 100 µM (active) | AC50 [4]: > 70 µM (inactive) | EC50 (Protein RecA): 5.09 µM (active) | AC50 [5]: 18.5 µM (active) | EC50 [6]: 17.3 µM (active) | CC50 (Vero): 27.6 µM (active) | AC50 [7]: 11.1 µM (active) | AC50 [8]: 2.72 µM (active) | IC50 [9]: 5.95 µM (active)

COc1ccc(S(=O)(=O)N(C)C[C@@H]2Oc3c(NC(=O)NC(C)C)cccc3C(=O)N([C@@H](C)CO)C[C@H]2C)cc1
AC50 (INS1): 46.4 µM (active)

C[C@H](CN1CCC(n2nnc3ccccc32)CC1)NC(=O)c1ccc2ccccc2c1
IC50 (Phospholipase D2): 12 µM (active) | IC50 (Phospholipase D1): 3.8 µM (active)
